Reference: patent US20200165194A1, “ADDITIVE COMPOSITION FOR CULTURE MEDIUM, ADDITIVE COMPOUND FOR CULTURE MEDIUM, AND METHOD FOR CULTURE OF CELLS OR TISSUE USING SAME” (NISSAN CHEMICAL CORPORATION, priority 2017, published 2020)
Where two headings read alike, the source gives them in different places.

What was measured:
Format in all cases: cell-based
[1] = tested on: human epithelial-like cell cancer-derived cell line A431; assay: Cells cultured by hanging drop method, ATP assay (Experimental Example 12); conditions: for cell number (in words): A431 cell line, three-dimensional cell culture by the hanging drop method; for cell number (relative value): A431 cell, hanging drop, 5 μM, 2 days, control = 100%
Procedure: (§1) Human epithelial-like cell cancer-derived cell line A431 (manufactured by ATCC) was cultured using 10% FBS and 1% MEM non-essential amino acid solution (MEM NEAA, manufactured by Wako Pure Chemical Industries, Ltd.)-containing EMEM (manufactured by Wako Pure Chemical Industries, Ltd.)). In addition, bone marrow-derived human mesenchymal stem cells (BM-hMSC, manufactured by PromoCell) were cultured using a mesenchymal stem cell proliferation medium (manufactured by PromoCell). Each of the above-mentioned cells in the logarithmic growth phase was washed with PBS, a 0.25 w/v % trypsin-1 mmol/L EDTA (ethylenediaminetetraacetic acid) solution (manufactured by Wako Pure Chemical Industries, Ltd.) was added, and the cells were detached by incubating at 37° C. for 3 min. Each medium was added, the mixture was centrifuged, and the supernatant was removed.
(§2) The cell suspension was seeded by 10 μL in 15 drops on the back surface of the lid of a 3.5 cm dish (manufactured by Falcon, #351008) to form droplets. At this time, as a control, a medium supplemented with DMSO (final concentration of DMSO: 0.05%) was seeded by 10 μL in 15 drops. The lid was returned to a 3.5 cm dish added with 2 mL of PBS, and cultured for 2 days in an incubator at 37° C., 5% CO2. The cultured droplets were collected in a 1.5 mL tube, and the medium was added to a final volume of 150 μL.

[2] = tested on: Bone marrow-derived human mesenchymal stem cells (BM-hMSC); assay: as above; conditions: for cell number (relative value): BM-hMSC, hanging drop, 5 μM, 2 days, control = 100%; for cell number (in words): bone marrow-derived human mesenchymal stem cells, hanging drop method
Procedure: as §1, §2

[3] = tested on: Human mesenchymal stem cells (hMSC); assay: Human mesenchymal stem cells-1: viable cell count, 2D and 3D culture (Experimental Example 9); conditions: for cell proliferation rate (relative value): hMSC, 10 μM, 7 days, compound non-addition = 1; for number of hMSC cells (in words): two-dimensional and three-dimensional cell culture conditions
Procedure: (§3) Human mesenchymal stem cells (hMSC, manufactured by TOYOBO) were precultured by a single layer culture method (2D) using an MF-medium mesenchymal stem cell proliferation medium (manufactured by TOYOBO). In three-dimensional culture method (3D), hMSC were suspended in a medium composition added with deacylated gellan gum, and seeded in a […] flat bottom Ultr-low Attachment surface plate (manufactured by Corning Incorporated, #3471) at 1.2×10^5 cells/2 mL/well. In 2D, hMSC were suspended in a deacylated gellan gum-free medium composition, and seeded in a 6-well flat bottom plate (manufactured by Corning Incorporated, #3516) at 4.0×10^4 cells/2 mL/well. […] As a control, DMSO was added at a final concentration of 0.1%. Seven days later, in the three-dimensional culture method, cells were collected from the wells, washed with PBS, and the supernatant was removed. Then, a trypsin 0.25 w/v % trypsin-1 mmol/L EDTA (ethylenediaminetetraacetic acid) solution (manufactured by Wako Pure Chemical Industries, Ltd.) was added and the cells were incubated at 37° C. for 2-5 min to disperse the spheres into single cells. The medium was added, and the mixture was centrifuged to remove the supernatant. Thereafter, the cells were resuspended in the same medium, a part was suspended in Trypan Blue (manufactured by Wako Pure Chemical Industries, Ltd.), and the number of viable cells was counted using automatic cell counter TC20 (manufactured by BIO-RAD).
In a single layer culture method, the cells were washed with PBS, 0.25 w/v % trypsin-1 mmol/L EDTA solution was added, and the cells were detached by incubating at 37° C. for 2-5 min. The medium was added, the mixture was centrifuged and the supernatant was removed. Thereafter, the cells were resuspended in the same medium, a part was suspended in Trypan Blue (manufactured by Wako Pure Chemical Industries, Ltd.) and the number of viable cells was counted using TC-20 (manufactured by BIO-RAD).
(§4) CD34 antibody (APC, manufactured by BD Bioscience), CD73 (BV421, manufactured by BD Bioscience), CD29 (BB515, manufactured by BD Bioscience) were added to the above-mentioned cell suspension, and the mixture was incubated on ice for 30 min. The cells were washed twice with 2% SM buffer (2% FBS/PBS), SM containing 1 μg/mL of Propidium Iodide (PI) was added, and the mixture was analyzed with FACSAria (manufactured by Becton Dickinson). The cell number with compound non-addition (control) was taken as 1, and relative value with addition of each compound is calculated in the fifteenth table. The positive rates or negative rates of CD34, CD73, and CD29 of cells after three-dimensional culture (3D) under the conditions with no addition or addition of the compound are shown in the sixteenth table.

CD34, CD73, CD29 of hMSC = assay: Human mesenchymal stem cells-1: cell surface markers by FACS after 3D culture (Experimental Example 9); conditions: for CD34+ (negative rate) / CD29+ (positive rate) / CD73+ (positive rate): hMSC after 3D culture, 10 μM, 7 days; for CD34+ (negative rate): no addition 0.9%; for CD29+ (positive rate): no addition 94.6%; for CD73+ (positive rate): no addition 99.9%; for undifferentiated state of hMSCs (in words): surface markers CD34, CD73, CD29 did not change
Procedure: as §3, §4

[4] = tested on: human ovarian cancer cell line SKOV3; assay: Action on SKOV3 cell-1: 3D (deacylated gellan gum) and 2D culture, HB-EGF medium, ATP assay (Experimental Example 2); conditions: for relative value of RLU (number of viable cells) / viability at 0.5 µM / viability at 1 µM / viability at 5 µM / viability at 10 µM / viability at 20 µM: 4 days, compound non-addition = 100%; for viability at 0.5 µM / viability at 1 µM / viability at 5 µM / viability at 10 µM / viability at 20 µM: Homo sapiens, SK-OV-3, 96 h, read-out: relative value of RLU (number of viable cells)
Procedure: According to the method of patent document 1 (WO 2014/017513), a composition of McCoy's 5a medium (manufactured by Sigma-Aldrich) containing 0.015% (w/v) deacylated gellan gum (KELCOGEL CG-LA, manufactured by Sansho Co., Ltd.) and 15% (v/v) FBS, 100 ng/mL human HB-EGF (manufactured by PEPROTECH) was prepared by a homomixer. As a control, a non-addition medium composition not containing deacylated gellan gum was prepared. Then, human ovarian cancer cell line SKOV3 (manufactured by DS PHARMA BIO MEDICAL) was suspended in the above-mentioned medium composition added with deacylated gellan gum, and dispensed into the wells of a 384 well flat bottom Ultr-low Attachment surface microplate (manufactured by Corning Incorporated, #3827) at 1000 cells/40 μL/well (three-dimensional culture (3D)). In a single layer culture (2D), human ovarian cancer cell line SKOV3 was suspended in the above-mentioned medium is composition not containing deacylated gellan gum, and dispensed into the wells of a 384 well flat bottom microplate (manufactured by Corning Incorporated, #3712) at 400 cells/40 L per well. Each plate was cultured in a standing state in a CO2 incubator (37° C., 5% CO2). On day 1 of culture, the compound to be used in the present invention dissolved in dimethyl sulfoxide (DMSO) was added by 4.4 μL each at a final concentration of 0, 0.5, 1, 5, 10, 20 μM, and continuously cultured for 4 days. An ATP reagent (44.4 μL) (CellTiter-Glo (registered trade mark) Luminescent Cell Viability Assay, manufactured by Promega) was added to and suspended in the culture medium on day 5, and the suspension was stood for 15 min at room temperature. The luminescence intensity (RLU value) was measured by FlexStation3 (manufactured by Molecular Devices) and the luminescence value of the medium alone was subtracted to measure the number of viable cells.

[5] = 2D single layer culture, 0.5 μM
[6] = 3D culture (deacylated gellan gum), 0.5 μM
[7] = 3D culture (deacylated gellan gum), 1 μM
[8] = 3D culture (deacylated gellan gum), 5 μM
[9] = 3D culture (deacylated gellan gum), 10 μM
[10] = 3D culture (deacylated gellan gum), 20 μM
[11] = single layer culture (2D) of SKOV3 cells
[12] = three-dimensional culture (3D) of SKOV3 cells

Structure (SMILES)	cell number (in words) [1]	cell number (relative value) [1]	cell number (relative value) [2]	cell number (in words) [2]	cell proliferation rate (relative value) ([3]; 2D)	cell proliferation rate (relative value) ([3]; 3D (deacylated gellan gum))	number of hMSC cells (in words) [3]	CD34+ (negative rate) (CD34, CD73, CD29 of hMSC)	CD29+ (positive rate) (CD34, CD73, CD29 of hMSC)	CD73+ (positive rate) (CD34, CD73, CD29 of hMSC)	undifferentiated state of hMSCs (in words) (CD34, CD73, CD29 of hMSC)	cell proliferation promoting effect (in words) [4, 11]	cell proliferation promoting effect (in words) [4, 12]	also measured
CC/C(=N\NC(=O)C(C)Nc1ccccc1)c1ccc(O)c(C)c1O (stereo not shown) [k-1:B-1]	showed an effect of increasing the number	227%	223%	showed an effect of increasing the number	–	–	–	–	–	–	–	–	–	–
CCC(=NNC(=O)C(CC)Nc1ccccc1)c1ccc(O)c(C)c1O (stereo not shown) [k-1:H-7]	showed an effect of increasing the number	232%	206%	showed an effect of increasing the number	1.9	4	showed an effect of increasing the number of hMSC cells	3%	94.6%	100%	promote cell proliferation while maintaining undifferentiated state of hMSCs	a favorable cell proliferation promoting effect was not observed	exhibited cell proliferation promoting effect at a wide concentration range	relative value of RLU (number of viable cells) [4, 5]: 110%; relative value of RLU (number of viable cells) ([4]; 2D single layer culture, 1 μM): 105%; relative value of RLU (number of viable cells) ([4]; 2D single layer culture, 5 μM): 91%; relative value of RLU (number of viable cells) ([4]; 2D single layer culture, 10 μM): 69%; relative value of RLU (number of viable cells) ([4]; 2D single layer culture, 20 μM): 47%; relative value of RLU (number of viable cells) [4, 6]: 104%; relative value of RLU (number of viable cells) [4, 7]: 137%; relative value of RLU (number of viable cells) [4, 8]: 176%; relative value of RLU (number of viable cells) [4, 9]: 150%; relative value of RLU (number of viable cells) [4, 10]: 110%
CC/C(=N\NC(=O)Nc1ccccc1)c1ccc(O)c(C)c1O [k-1:H-10]	–	–	–	–	1.3	1.7	showed an effect of increasing the number of hMSC cells	0.7%	87.6%	99.1%	promote cell proliferation while maintaining undifferentiated state of hMSCs	a favorable cell proliferation promoting effect was not observed	exhibited cell proliferation promoting effect at a wide concentration range	viability at 0.5 µM [4, 5]: 111%; viability at 1 µM ([4]; 2D single layer culture, 1 μM): 108%; viability at 5 µM ([4]; 2D single layer culture, 5 μM): 102%; viability at 10 µM ([4]; 2D single layer culture, 10 μM): 99%; viability at 20 µM ([4]; 2D single layer culture, 20 μM): 66%; viability at 0.5 µM [4, 6]: 120%; viability at 1 µM [4, 7]: 120%; viability at 5 µM [4, 8]: 128%; viability at 10 µM [4, 9]: 138%; viability at 20 µM [4, 10]: 129%
